{"source": "patent US20240082260A1", "about": "“INHIBITOR OF PROTEIN KINASE D FOR USE IN PREVENTION OR TREATMENT OF HYPERLIPIDEMIA” (priority 2021, published 2024)", "type_in_all_cases": "in vivo, mouse", "key": {"male C57BL/6 mice on HFD [1]": {"tested_on": "male C57BL/6 mice on HFD", "test": "Oral PKD inhibitor in HFD-fed C57BL/6 mice (diet-induced obesity and diabetes)", "method": "Mice body weight development was closely monitored and reported here on a weekly basis when mice were on a specified diet. All experiments were performed in male mice.\nPKD inhibitor CRT0066101 was dissolved in water (10 mg/kg) and administered orally to the mice by daily gavage, while the control mice were gavaged with water. Mice were maintained on the specified diets and had ab libitum access to food and water. C57BL/6 mice were administered CRT inhibitor treatment at 4-weeks of age, while for the rescue experiment, inhibitor was given under the same circumstances but treatment started only after 7 weeks of HFD feeding. Intestinal barrier permeability was further assessed 1 hour after oral gavage of FITC-Dextran 4.\nEnergy expenditure, food intake, and activity measurements were obtained in a PhenoMaster (TSE Systems) as previously described (El-Merahbi, Viera et al., 2020, Trujillo Viera, El-Merahbi et al., 2016). Briefly, mice were kept in separate metabolic cages with unlimited access to water and to the specified diet. After 48 hours of acclimation, data was collected every 10 min including photobeam breaks, oxygen consumption, carbon dioxide dissipation, and food and water consumption. Results in bars represent the average of each night/day cycle.\n(§1) A glucose tolerance test (GTT) was performed after overnight fasting. Mice blood glucose was assessed before and 15, 30, 60, 90, and 120 minutes after intraperitoneal injection of glucose (2 g/kg). For the Insulin tolerance test (ITT), the same measurements were performed after 4 hours of fasting and intraperitoneal injection of 0.5 U/kg of recombinant insulin. For glucose measurements, one blood drop was drawn from the tail tip into a test strip and measured with a glucometer (Accu-Chek® Roche).\nLipids tolerance test was performed as described previously (Wang, Rong et al., 2016b). Briefly, overnight fasted mice were gavaged with olive oil (10 μL/g body weight). Blood was collected at indicated times for measurement of serum triglycerides content. For lipids absorption under tyloxapol treatment, 250 μg/g of body weight were i.p. injected to mice 30 minutes before the gavage of olive oil 5 μL/g body weight.\nLiver triglycerides were measured by homogenization of 50 mg of liver in 500 uL of lysis buffer and lipids extraction in methanol:chloroform, phase extraction and evaporation. The lipids were redissolved in DMSO and triglycerides quantified with the mentioned kit and according to the manufacturers' instructions.\nThe bedding of single-caged mice was collected and the ingested food ingestion from the individual mice was assessed. All the stools were manually collected. After overnight dissecation at 60° C., the samples were weighted and frozen for further analysis. The amount of feces produced per mouse was compared to the amount of food consumed and the weight gain. About 3 g of dried feces material were homogenized and 1 g was pressed into a tablet and accurately weighted. Calorie content from feces and diet was measured in duplicates in a 6400 Automatic Isoperibol calorimeter (Parr Instrument Company). To analyze energy excreted, the amount of energy in feces was compared to the amount of energy ingested (the product between grams of food and caloric content of the food). Lipids extraction from feces was performed as previously described (Kraus, Yang et al., 2015).\nProteins from tissues and cell culture were extracted with RIPA buffer supplemented with phosphatase and protease inhibitor (PPI, Thermo Fisher Scientific). Protein concentration was measured by Pierce™ BCA Protein Assay Kit (Thermo Fisher Scientific) following the manufacturer's protocol. Reduced protein extracts were separated on 10% SDS-PAGE gels by electrophoresis and transferred to PVDF membranes under wet transfer. Membranes were blocked in 5% (w/v) milk in TBS-T before overnight probing with indicated primary antibodies at 4° C., followed by TBS-T washes and incubation with corresponding secondary antibody."}, "LDLR-/- mice": {"tested_on": "LDLR-/- mice", "test": "Atheroma formation in high cholesterol diet-fed LDLR-/- mice", "conditions": "oral 10 mg/kg a day, 7th to 17th week of high cholesterol diet, vs solvent", "description": "To assess the impact of PKD2 on cholesterol levels as well as on atheroma formation, we utilized a mouse genetic model of atheroma formation and mice carrying inactivatory mutation in the sequence encoding PKD2 (Matthews et al, 2010). Mice deficient for Low-density lipoprotein receptor (LDLR), develop hyperlipidemia (elevated levels of cholesterol) and deposit a significant amount of atherosclerotic plaques in the vessels especially when fed with a high cholesterol diet (containing 1.25% of the cholesterol in the food) (Ishibashi et al, 1993). We crossed mice deficient for LDLR (LDLR−/−) and mice carrying inactivatory mutation of PKD2 (PKD^ki/ki) to generate double mutant mice (LDLR−/− PKD^ki/ki) and corresponding control animals, LDLR−/−. These animals were fed for 18 weeks with high cholesterol diet. […] The relative plaque area was also quantified.\nTo test if inhibition of PKD by CRT0066101 compound is also sufficient to reduce atherosclerotic plaque formation, we also utilized high cholesterol diet-fed LDLR−/− mice as a model. […] After the 17th week of the experiment, mice were sacrificed and lipid levels in the blood, as well as the amount of atherosclerotic plaques, were assessed as described for the genetic model above."}, "male C57BL/6 mice on HFD [2]": {"tested_on": "male C57BL/6 mice on HFD", "test": "Oral PKD inhibitor in mice with pre-established obesity (rescue, treatment after 7 weeks of HFD)", "method": "as §1, with “Mice body weight development was closely monitored and reported here on a weekly basis when mice were on a specified diet. All experiments were performed in male mice. […] A glucose” for “A glucose”"}}}
{"smiles": "CC[C@@H](N)CNc1ccnc(-c2cc(-c3cnn(C)c3)ccc2O)n1", "note": "[CRT0066101]", "values": [{"measurement": "accumulation of TG in the liver", "setting": "male C57BL/6 mice on HFD [1]; oral 10 mg/kg daily, HFD", "result": "did not affect"}, {"measurement": "brown adipose tissue morphology", "setting": "male C57BL/6 mice on HFD [1]; oral 10 mg/kg daily, HFD", "result": "promoted healthier, multilocular brown adipose tissue"}, {"measurement": "energy expenditure", "setting": "male C57BL/6 mice on HFD [1]; oral 10 mg/kg daily, HFD", "result": "did not affect"}, {"measurement": "food consumption", "setting": "male C57BL/6 mice on HFD [1]; oral 10 mg/kg daily, HFD", "result": "did not affect"}, {"measurement": "markers of liver function", "setting": "male C57BL/6 mice on HFD [1]; oral 10 mg/kg daily, HFD", "result": "did not affect"}, {"measurement": "mobility", "setting": "male C57BL/6 mice on HFD [1]; oral 10 mg/kg daily, HFD", "result": "did not affect"}, {"measurement": "body weight gain", "setting": "male C57BL/6 mice on HFD [1]; oral 10 mg/kg daily, HFD, 13 weeks, vs water, FIG. 6G", "result": "significantly lower body weight gain"}, {"measurement": "levels of APOA4 in the intestine (jejunum, western blot)", "setting": "male C57BL/6 mice on HFD [1]; oral 10 mg/kg daily, HFD, 13 weeks, FIG. 6F", "result": "increased levels of APOA4"}, {"measurement": "fecal energy excretion", "setting": "male C57BL/6 mice on HFD [1]; oral 10 mg/kg daily, HFD, FIG. 6D", "result": "greater fecal energy excretion"}, {"measurement": "intestinal TG absorption (lipids tolerance test after olive oil gavage)", "setting": "male C57BL/6 mice on HFD [1]; oral 10 mg/kg daily, after 9 weeks HFD, FIG. 6E", "result": "decreased intestinal TG absorption"}, {"measurement": "glucose tolerance (GTT)", "setting": "male C57BL/6 mice on HFD [1]; oral 10 mg/kg daily, after 10 weeks of treatment and HFD, FIG. 6H", "result": "improved"}, {"measurement": "insulin tolerance (ITT)", "setting": "male C57BL/6 mice on HFD [1]; oral 10 mg/kg daily, after 11 weeks of treatment and HFD, FIG. 6I", "result": "improved"}, {"measurement": "obesity induced by a high-fat diet (summary statement)", "setting": "male C57BL/6 mice on HFD [1]; oral administration, mice, also said to prevent hyperlipidemia and diabetes and improve microflora", "result": "significantly reduces obesity induced by a high-fat diet"}, {"measurement": "blood cholesterol levels", "setting": "LDLR-/- mice; FIG. 10A", "result": "reduction in cholesterol levels"}, {"measurement": "size of atherosclerotic plaques (relative area in aorta, OilRedO)", "setting": "LDLR-/- mice; FIG. 10B-C", "result": "smaller size of atherosclerotic plaques"}, {"measurement": "glucose tolerance", "setting": "male C57BL/6 mice on HFD [2]; 8 weeks after starting treatment, FIG. 7D", "result": "improved glucose tolerance"}, {"measurement": "insulin sensitivity", "setting": "male C57BL/6 mice on HFD [2]; 10 weeks after starting treatment, FIG. 7E", "result": "improved"}, {"measurement": "weight gain", "setting": "male C57BL/6 mice on HFD [2]; treatment started after 7 weeks HFD, HFD continued, vs water, FIG. 7A", "result": "significantly decreased weight gain"}, {"measurement": "obesity (fat depots, fat mass by NMR)", "setting": "male C57BL/6 mice on HFD [2]; treatment started after 7 weeks HFD, FIG. 7B-C", "result": "less obesity"}]}
